The values that follow are results of earlier work, collected in patent publication US20160002278A1, “Pharmaceutical Compositions for Rectal Administration” (CIPLA LIMITED, priority 2013, published 2016).

A word on the bioavailability: it is the share of a dose that reaches the circulation, judged against a reference dose that is usually intravenous.

The conditions of data set [1]: oral administration.
For data set [2] the following is noted: animal study, distributed to other vital organs such as lungs.

In the case of `CCc1c(Cl)c(O)c(Cl)c(O)c1C(=O)O[C@H]1[C@H](O)[C@H](OC)[C@H](OC/C2=C\C=C\C[C@H](O)/C(C)=C/[C@H](CC)[C@@H](O[C@@H]3OC(C)(C)[C@@H](OC(=O)C(C)C)[C@H](O)[C@@H]3O)/C(C)=C/C(C)=C/C[C@@H]([C@@H](C)O)OC2=O)O[C@@H]1C` [Fidaxomicin], the bioavailability (after oral administration) is given as 1%. The “absorption from the gastrointestinal tract” value (following oral (PO) administration) is “minimally absorbed”. The adverse effects entry in data set [1] is given as “hives, difficulty in breathing, swelling of face, lips, tongue or throat”. Also, the “organ findings after oral administration” value in data set [2] is “dark red discoloration of the lungs and lymph nodes”.
